What was measured:
[1] = Drug uptake in PSMA positive human LNCaP C4-2B cells assessed as increase in fluorescence at 10 uM incubated for 10 mins in presence of CTT1057 by DAPI staining based confocal microscopy analysis; format: ADME, cell-based
[2] = system: LNCaP C4-2B; assay: Anticancer activity against PMSA positive human LNCaP C4-2B cells assessed as reduction in cell viability measured after 72 hrs by celltiter-glo assay; format: functional, cell-based; conditions: dose 0.313-20 µM
[3] = Drug uptake in PSMA positive human LNCaP C4-2B cells assessed as increase in fluorescence at 10 uM incubated for 10 mins by DAPI staining based confocal microscopy analysis; format: ADME, cell-based
[4] = system: PC-3; assay: Anticancer activity against human PC-3 cells with PSMA knockout cells assessed as reduction in cell viability measured after 72 hrs by celltiter-glo assay; format: functional, cell-based; conditions: dose 0.313-20 µM
[5] = Drug uptake in human PC-3 cells with PSMA knockout assessed as increase in fluorescence at 10 uM incubated for 10 mins by DAPI staining based confocal microscopy analysis; format: ADME, cell-based; conditions: pc-3, 10 min
[6] = biological target: Glutamate carboxypeptidase 2 (Homo sapiens, UniProt Q04609); assay: Irreversible inhibition of PSMA (unknown origin)
Chain of Glutamate carboxypeptidase 2 (Q04609 whole entry): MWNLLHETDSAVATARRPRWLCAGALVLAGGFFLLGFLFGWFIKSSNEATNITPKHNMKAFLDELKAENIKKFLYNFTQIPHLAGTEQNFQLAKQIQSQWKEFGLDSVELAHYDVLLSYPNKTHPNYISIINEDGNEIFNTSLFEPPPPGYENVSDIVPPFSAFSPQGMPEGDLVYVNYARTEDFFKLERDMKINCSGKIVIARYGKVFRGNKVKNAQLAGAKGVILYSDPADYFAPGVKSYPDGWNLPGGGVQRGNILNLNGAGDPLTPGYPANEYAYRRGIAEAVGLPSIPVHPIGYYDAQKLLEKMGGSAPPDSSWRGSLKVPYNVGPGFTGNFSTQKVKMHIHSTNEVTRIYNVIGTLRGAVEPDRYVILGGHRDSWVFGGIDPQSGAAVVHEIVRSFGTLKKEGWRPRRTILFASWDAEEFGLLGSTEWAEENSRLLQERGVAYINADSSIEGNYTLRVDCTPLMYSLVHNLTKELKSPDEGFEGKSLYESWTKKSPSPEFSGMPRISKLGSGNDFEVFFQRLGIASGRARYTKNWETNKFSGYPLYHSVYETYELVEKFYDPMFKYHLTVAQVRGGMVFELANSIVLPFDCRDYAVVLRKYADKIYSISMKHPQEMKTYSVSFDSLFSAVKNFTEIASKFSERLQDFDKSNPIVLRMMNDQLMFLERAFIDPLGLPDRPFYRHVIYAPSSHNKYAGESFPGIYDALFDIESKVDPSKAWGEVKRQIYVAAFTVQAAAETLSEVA

Drug uptake [1]	Drug uptake [3]	Drug uptake [5]	IC50 [6] [µM]	Structure (SMILES)	Activity [2]	Activity [4]
Not Active	Active	Not Active	–	COc1cccc2c1C(=O)c1c(O)c3c(c(O)c1C2=O)C[C@@](O)(C(=O)CO)C[C@@H]3O[C@H]1C[C@H](NC(=O)OCc2ccc(NC(=O)[C@H](CCCNC(N)=O)NC(=O)[C@@H](NC(=O)c3ccc(Cn4nnc5c4-c4ccccc4CN(C(=O)CCCCC(=O)NCCCCCC(=O)N[C@@H](CCC(=O)N[C@@H](CCCOP(=O)(O)N[C@@H](CCC(=O)O)C(=O)O)C(=O)O)C(=O)O)c4ccccc4-5)cc3)C(C)C)cc2)[C@H](O)[C@H](C)O1	Dose-Dependent Effect	Dose-Dependent Effect
–	–	–	10	COc1cccc2c1C(=O)c1c(O)c3c(c(O)c1C2=O)C[C@@](O)(C(=O)CO)C[C@@H]3O[C@H]1C[C@H](N)[C@H](O)[C@H](C)O1 [DOXORUBICIN]	–	–

From ChEMBL document CHEMBL5625272, “A PSMA-targeted doxorubicin small-molecule drug conjugate” (Bioorg Med Chem Lett, 2024)
